Reference: patent US9969726B2, “Metabotropic glutamate receptor negative allosteric modulators (NAMS) and uses thereof” (Sanford-Burnham Medical Research Institute, priority 2014, dated 2018)
Like-named read-outs stand apart in the source and are kept apart here.

Assays:
rat mGlu3 receptor = rat mGlu3 receptor (Rattus norvegicus (Rat), UniProt P31422); experiment: mGlu3 in vitro GIRK thallium flux assay; assay type: cell-based; conditions: NAM; 2.5 min compound incubation; EC80 glutamate; HEK-293 GIRK cells
Sequence of rat mGlu3 receptor (P31422 23-879): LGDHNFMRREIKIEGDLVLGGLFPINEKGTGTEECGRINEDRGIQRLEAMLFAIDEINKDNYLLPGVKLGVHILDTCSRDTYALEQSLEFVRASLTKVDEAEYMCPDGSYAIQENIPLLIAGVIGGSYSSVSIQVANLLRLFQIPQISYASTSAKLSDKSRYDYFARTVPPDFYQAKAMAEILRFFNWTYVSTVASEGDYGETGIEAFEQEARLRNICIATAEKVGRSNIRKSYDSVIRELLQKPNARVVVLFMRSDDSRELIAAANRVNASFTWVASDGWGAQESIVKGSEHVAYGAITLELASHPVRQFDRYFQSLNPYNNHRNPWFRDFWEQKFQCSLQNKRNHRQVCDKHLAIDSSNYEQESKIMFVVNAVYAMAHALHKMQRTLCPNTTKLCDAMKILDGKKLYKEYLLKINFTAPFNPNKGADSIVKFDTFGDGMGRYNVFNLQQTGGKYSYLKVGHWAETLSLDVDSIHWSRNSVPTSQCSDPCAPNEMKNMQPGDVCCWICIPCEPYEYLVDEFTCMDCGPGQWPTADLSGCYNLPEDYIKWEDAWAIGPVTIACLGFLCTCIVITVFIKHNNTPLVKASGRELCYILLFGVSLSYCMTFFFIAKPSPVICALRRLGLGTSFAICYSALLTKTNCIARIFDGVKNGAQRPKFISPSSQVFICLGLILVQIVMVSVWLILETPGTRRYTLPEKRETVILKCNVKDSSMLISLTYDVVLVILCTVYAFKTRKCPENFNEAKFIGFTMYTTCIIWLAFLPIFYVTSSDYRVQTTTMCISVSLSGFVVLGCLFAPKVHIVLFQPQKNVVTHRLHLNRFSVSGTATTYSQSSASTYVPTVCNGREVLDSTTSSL
Outline: (§1)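 Cells expressing rat mGlu2 or mGlu3 with GIRK, plated overnight at 37 °C. Test compounds (0.3% DMSO, 10-point 1:3 series) preincubated 2.5 or 60 min, then thallium buffer plus EC80 glutamate added. Fluorescence slope 5–15 s after addition, normalised to vehicle and maximal agonist, fitted by four-parameter logistic.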

[1] = Plasma stability in vitro assay; assay type: in vitro ADME; conditions: rat plasma, 100 μM, 37.5° C.
Protocol: A 20 μL aliquot of a 10 mM solution in DMSO of the test compound was added to 2.0 mL of heparinized rat plasma (Lampire, P1-150N) to obtain a 100 μM final solution. The mixture was incubated for 1 h at 37.5° C. Aliquots of 100 μL were taken at 15 min intervals and diluted with 100 μL of MeOH/ACN. After mixing, the sample was centrifuged at approximately 13000 rpm for 12 min. The supernatant was filtered and transferred into an autosampler vial and the amount of test compound was quantified using the Shimadzu LCMS-2010EV system. The change of the AUC of the parent compound in function of time was used as a measure of plasma stability.

[2] = Microsomal stability in vitro assay; assay type: in vitro ADME; conditions: rat liver microsomes 1 mg/mL, 4 μM compound, 2 mM NADPH
Protocol: Pooled rat liver microsomes (BD Biosciences, #452701) were preincubated with test compounds at 37.5° C. for 5 min in the absence of NADPH. The reaction was initiated by addition of NADPH and incubated under the same conditions. The final incubation concentrations were 4 μM test compound, 2 mM NADPH, and 1 mg/mL (total protein) liver microsomes in phosphate-buffered saline (PBS) at pH 7.4. One aliquot (100 μL) of the incubation mixture was withdrawn at 15 min time points and combined immediately with 100 μL of ACN/MeOH. After mixing, the sample was centrifuged at approximately 13000 rpm for 12 min. The supernatant was filtered and transferred into an autosampler vial and the amount of test compound was quantified using a Shimadzu LCMS 2010EV mass spectrometer. The change of the AUC (area under the curve) of the parent compound as a function of time was used as a measure of microsomal stability. Test compounds were run in duplicate with a positive control.

rat mGlu2 receptor = rat mGlu2 receptor (Rattus norvegicus (Rat), UniProt P31421); experiment: mGlu2 in vitro GIRK thallium flux assay; assay type: cell-based; conditions: NAM, EC80 glutamate, HEK-293 GIRK cells
Sequence of rat mGlu2 receptor (P31421 19-872): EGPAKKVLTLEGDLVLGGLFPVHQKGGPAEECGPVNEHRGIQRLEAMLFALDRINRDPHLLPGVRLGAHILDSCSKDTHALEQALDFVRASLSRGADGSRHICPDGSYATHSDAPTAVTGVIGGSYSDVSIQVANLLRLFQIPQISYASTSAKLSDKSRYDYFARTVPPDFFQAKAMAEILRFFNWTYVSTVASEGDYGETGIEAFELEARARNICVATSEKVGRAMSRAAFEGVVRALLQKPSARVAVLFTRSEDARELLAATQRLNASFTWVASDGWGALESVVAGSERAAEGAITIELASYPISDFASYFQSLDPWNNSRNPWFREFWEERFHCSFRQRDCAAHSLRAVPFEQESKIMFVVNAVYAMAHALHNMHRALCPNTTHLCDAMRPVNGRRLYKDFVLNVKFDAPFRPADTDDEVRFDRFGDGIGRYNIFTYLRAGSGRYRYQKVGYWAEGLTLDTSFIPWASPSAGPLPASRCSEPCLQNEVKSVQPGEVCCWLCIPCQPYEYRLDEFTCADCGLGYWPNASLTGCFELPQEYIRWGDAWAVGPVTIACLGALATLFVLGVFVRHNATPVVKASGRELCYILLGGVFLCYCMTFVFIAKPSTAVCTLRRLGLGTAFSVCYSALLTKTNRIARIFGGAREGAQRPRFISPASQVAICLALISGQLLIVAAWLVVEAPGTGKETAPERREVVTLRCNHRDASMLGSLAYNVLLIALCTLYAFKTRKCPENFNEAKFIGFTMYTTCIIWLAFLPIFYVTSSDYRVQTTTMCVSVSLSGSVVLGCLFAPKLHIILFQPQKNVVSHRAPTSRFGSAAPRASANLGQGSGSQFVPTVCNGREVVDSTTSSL
Outline: as §1

[3] = 2.5 min compound incubation, read-out: mGlu2 EC50 (μM) (2.5 min)
[4] = mGlu2 EC50 (μM) (60 min), 60 min compound incubation
[5] = read-out: mGlu2 EC50 (μM) (60 min), 60 min compound incubation

Row | EC50 (rat mGlu2 receptor; [4]) [µM] | SMILES | EC50 (rat mGlu3 receptor) [µM] | Plasma Stability, Percent Remaining @ 1 hour [1] [%] | Microsomal Stability, Percent Remaining @ 1 hour [2] [%] | EC50 (rat mGlu2 receptor; [3]) [µM] | EC50 (rat mGlu2 receptor; [5]) [µM]
1 | 0.48 | O=C(O)c1cc(-c2cccc(-c3csc(-c4ccccc4)n3)c2)ccc1F [Example 1, 4-Fluoro-3′-(2-phenylthiazol-4-yl)biphenyl-3-carboxylic Acid] | 1.21 | 93 | 3 | 0.33 | –
2 | 0.35 | O=C(O)c1cc(F)cc(-c2cccc(-c3csc(-c4ccccc4)n3)c2)c1 [Example 9, 5-Fluoro-3′-(2-phenylthiazol-4-yl)biphenyl-3-carboxylic Acid] | > 10 | 98 | 4 | 0.64 | –
3 | 0.05 | O=C(O)c1cc(-c2cccc(-c3nsc(-c4ccccc4)n3)c2)ccc1F [Example 38, 4-Fluoro-3′-(5-phenyl-1,2,4-thiadiazol-3-yl)biphenyl-3-carboxylic Acid] | 0.52 | 65 | 2 | 0.1 | –
4 | – | O=C(O)c1cc(F)cc(-c2cccc(-c3nc(-c4ccc(C(F)(F)F)nc4)cc(C(F)(F)F)n3)c2)c1 [Example 76, 5-Fluoro-3′-(4-(trifluoromethyl)-6-(6-(trifluoromethyl)pyridin-3-yl)pyrimidin-2-yl)biphenyl-3-carboxylic Acid] | 1.61 | 100 | 95 | 1.53 | 0.09
5 | – | O=C(O)c1ccc(F)c(-c2cccc(-c3nc(-c4ccc(C(F)(F)F)nc4)cc(C(F)(F)F)n3)c2)c1 [Example 79, 6-Fluoro-3′-(4-(trifluoromethyl)-6-(6-(trifluoromethyl)pyridin-3-yl)pyrimidin-2-yl)biphenyl-3-carboxylic Acid] | 0.89 | 86 | 82 | 0.83 | 0.09
6 | – | O=C(O)c1cc(-c2cccc(-c3nc(-c4ccccc4)cc(C(F)(F)F)n3)c2)ccc1F [Example 86, 4-Fluoro-3′-(4-phenyl-6-(trifluoromethyl)pyrimidin-2-yl)biphenyl-3-carboxylic Acid] | 0.92 | 100 | 100 | 0.8 | 0.04
7 | – | COc1ccc(-c2cc(C(F)(F)F)nc(-c3cccc(-c4ccc(F)c(C(=O)O)c4)c3)n2)cc1 [Example 87, 4-Fluoro-3′-(4-(4-methoxyphenyl)-6-(trifluoromethyl)pyrimidin-2-yl)biphenyl-3-carboxylic Acid] | 1 | 97 | 92 | 1.07 | 0.06
8 | – | O=C(O)c1cc(F)cc(-c2cccc(-c3nc(-c4ccco4)cc(C(F)(F)F)n3)c2)c1 [Example 89, 5-Fluoro-3′-(4-(furan-2-yl)-6-(trifluoromethyl)pyrimidin-2-yl)biphenyl-3-carboxylic Acid] | 2.25 | 100 | 82 | 1.24 | 0.14
9 | – | O=C(O)c1ccc(F)c(-c2cccc(-c3nc(-c4ccoc4)cc(C(F)(F)F)n3)c2)c1 [Example 114, 6-Fluoro-3′-(4-(furan-3-yl)-6-(trifluoromethyl)pyrimidin-2-yl)biphenyl-3-carboxylic Acid] | 1.36 | 93 | 66 | 0.4 | –
10 | – | O=C(O)c1cc(-c2cccc(-c3nc(-c4ccsc4)cc(C(F)(F)F)n3)c2)ccc1F [Example 122, 4-Fluoro-3′-(4-(thiophen-3-yl)-6-(trifluoromethyl)pyrimidin-2-yl)-[1,1′-biphenyl]-3-carboxylic Acid] | 0.53 | 83 | 83 | – | 0.07
11 | – | Cc1cc2c(cc1C(F)(F)F)NC(=O)CC(c1cccc(Sc3ncccn3)c1)=N2 [Example 136, 7-Methyl-4-(3-(pyrimidin-2-ylthio)phenyl)-8-(trifluoromethyl)-1H-benzo[b][1,4]diazepin-2(3H)-one] | 0.81 | 99 | 90 | 0.88 | 0.04
